Laboratory results taken from patent US7736638B2, “Interleukin-15 antagonist peptide” (Centro de Ingenieria Genetica y Biotecnologia, priority 2004, dated 2010).
“Also recorded” adds a separate entry of the source. Ends that are not written are not given here.

Tests used:
[1] = tested on: TNFα-induced apoptosis in L929 cells; assay: Apoptosis induction assay in L929 cells (DNA fragmentation assay); assay type: cell-based; details: TNFα 100 ng/mL, peptide 260 μM, 24 h
Method: The DNA Fragmentation Assay allows to determine the amount of DNA that is degraded upon treatment of cells with TNF-alpha. The cells' DNA is radioactively labeled by growing the cells in presence of 3H-Thymidine so that radioactive 3H-Thymidine is incorporated into the DNA. After 24 h the cells were treated with Tripsin/EDTA, washed and seeded at 5000 cells per well in a 96 well plate. Then, the labeled cells were incubated with TNFα (100 ng/mL), IL-15 (100 ng/mL), peptides (260 μM) or combinations of TNFα with different peptides.
During this incubation the added agent (e.g. TNFα induces cells to die by apoptosis and consequently the fragmentation of DNA while the DNA of untreated cells remains intact). After 24 h the cells were harvested: during harvesting, the cells were washed out of the wells of the 96 well plate with bidestilated water: the cells and organelles burst and the cell's DNA is set free. The cell fragments and DNA are passed through a filter membrane (glassfiber). Only particles of smaller than 1,5 μm can pass the filter. […] The filter membrane was dried and the amount of radioactivity (what corresponds to the amount of intact DNA) counted in a scintillation counter. The percentage of DNA fragmentation was calculated by comparing the counted radioactivity (counts per minute=cpm) of cells that were not treated with the cpm in cells that were treated with agent.

IL-15Rα-Fc = IL-15Rα-Fc (Homo sapiens, UniProt Q13261); assay: IL-15 peptide spot mapping on cellulose filter, binding of IL-15Rα-Fc; details: 10-mer peptides on cellulose membrane; IL-15 α-Receptor at 5 μg/mL; blue/violet color = positive; listed as 8
Sequence of IL-15Rα-Fc (Q13261 with tags, fused parts or gaps limits assumed): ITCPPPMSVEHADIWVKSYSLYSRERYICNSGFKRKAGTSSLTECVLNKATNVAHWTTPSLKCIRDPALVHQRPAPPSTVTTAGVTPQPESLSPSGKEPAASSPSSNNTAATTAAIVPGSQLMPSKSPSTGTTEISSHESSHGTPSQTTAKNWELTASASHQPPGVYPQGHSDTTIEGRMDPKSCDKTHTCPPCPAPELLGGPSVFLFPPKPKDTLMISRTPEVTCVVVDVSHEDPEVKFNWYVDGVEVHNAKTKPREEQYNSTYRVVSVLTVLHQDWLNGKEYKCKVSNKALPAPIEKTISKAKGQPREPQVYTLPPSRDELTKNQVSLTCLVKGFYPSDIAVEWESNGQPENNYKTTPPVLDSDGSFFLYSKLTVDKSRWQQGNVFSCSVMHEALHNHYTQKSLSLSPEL
Method: To identify IL-15 regions involved in IL-15Rα binding, the peptide spot synthesis approach was used as previously described Frank et. al. The derivation of Whatman 540 paper was carried out estherifying the first anchor component, Fmoc-β-Ala-OH, using N,N′-Diisopropylcarbodiimide (DIC) and N-methylimidazole (NMI) in dry N,N-dimethylformamide (DMF). The spot array on the cellulose membrane was defined anchoring the Fmoc-β-Ala-OH on the previously marked positions, according to the required number of 10-mer peptides (22 peptides, overlapping in 5 residues, 114 amino acids of IL-15 sequence). Besides, a non-related 10 amino acids peptide was synthesized on spot 23 and also on spot 24 only Fmoc-β-Ala-OH was anchoring, both as controls. For the assembly of all these molecules, the standard Fmoc-/tBu chemistry was used. After the final cycle of synthesis, the N-terminus and side chains of all peptides were de-protected.
Cellulose sheet was soaked in ethanol to prevent possible hydrophobic interactions between the peptides on it. Ethanol was exchanged against Tris-buffer saline (TBS) (150 mM NaCl, 10 mM Tris, pH 7.6) by sequential washing. Nonspecific binding was blocked by incubating membrane overnight in 10 mL of TBS blocking buffer (5% Powdered milk in TBS). […]

[2] = molecular target: T1, IL-15Rα-Fc fusion protein (R&D 147-IR) (Homo sapiens, UniProt Q13261); assay: Colorimetric assay in Tentagel S beads, peptide binding to IL-15Rα; details: resin-bound peptide, IL-15Rα-Fc at 5 μg/mL
T1 construct: purchased R&D 147-IR
T1 sequence (Q13261 with tags, fused parts or gaps limits assumed): as above
Method: The resin NH2-Tentagel-S (0.24 mmol/g) was washed several times with di-chlorometane (DCM) and methanol. Then, it was incubated in a trifluoroacetic acid (TFA) solution 30% for 10 minutes; washed several times with DCM and incubated in di-isopropilethilamine (DIEA) 5% in DCM for 1 minute. This procedure activated the NH2 groups for synthesis. Later, it was washed with DCM and incubated in di-methylformamide (DMF) for 5 minutes to synthesize the peptide. The conventional Fmoc/tBu strategy of synthesis was used. Coupling reactions were followed by ninhidrine test. Once peptide Sec. No.1 sequence was completed, amino acids side chains were de-protected, leaving it anchored by its C-terminal to the resin.
Resin beads with anchored peptide were several times washed with saline solution (PBS). Non specific interactions were blocked with BSA (1%) in PBS for 1 hour at RT. Then, they were incubated with IL-15Rα-Fc fusion protein (R&D 147-IR) at 5 μg/mL in BSA (1%/PBS) for 16 hours at 4° C. Later, beads were washed in PBS three fold for 5 minutes with shaking and then incubated with anti-Fc IgG human-phosphatase conjugate diluted 1:25000 in BSA (1%/PBS) for three hours at RT. They were extensively washed with a saline solution (TBS/Tween-20, 1%) and incubated with BCIP (0.45 mg/mL) in substrate solution (100 mM Tris, pH 8.9; 100 mM NaCl; 2 mM MgCl2) for approximately 30 minutes. […]

[3] = tested on: IL-15-induced proliferation of CTLL-2 cells; assay: CTLL-2 proliferation assay with human IL-15 (MTT staining); assay type: cell-based; details: fixed peptide concentration 260 μM
Method: The cytokine-dependent cell line CTLL-2 proliferates in presence of IL-15. IL-15 bound molecules impairing receptor depending signal transduction would inhibit this cell line proliferation. To evaluate the neutralizing capacity the peptide of the present invention, serial dilutions of them were done in 96 well plates (Costar, USA) in 25 μL volume of RPMI medium (Gibco) supplemented with 10% fetal bovine serum (Gibco). Previously washed CTLL-2 cells were added to 5×10^3 cells/well and it was incubated for 30 min. Then, 300 pg of IL-15 were added to each well. Plate was incubated for 72 h at 5% CO2 and 37° C. […] We also evaluated the antagonist effect of 260 μM of this peptide at different IL-15 concentrations (FIG. 3a).

recognition of the peptide spot by IL-15Rα-Fc (IL-15Rα-Fc): recognizes; also recorded: recognition
color development in beads incubated with IL-15Rα-Fc [2]: intense blue color
color development in beads incubated with IL-15Rα-Fc in presence of an excess of human IL-15 ([2]; excess of IL-15 (competition)): did not observed color
Substance: KVTAMKCFLL-NH2 [SEQ ID NO: 1]
protection from TNFα-induced apoptosis (DNA fragmentation) [1]: protected form TNF induced apoptosis
antagonist effect of the peptide at different IL-15 concentrations [3]: dependent on IL-15 doses
